Patent publication US20100160361A1, “TREATMENT OF MAJOR ADVERSE CARDIAC EVENTS AND ACUTE CORONARY SYNDROME USING SECRETORY PHOSPHOLIPASE A2 (SPLA2) INHIBITOR OR SPLA2 INHIBITOR COMBINATION THERAPIES” (priority 2008, published 2010)
Like-named read-outs stand apart in the source and are kept apart here.

How the values were obtained:
[1] = tested on: serum sPLA2; experiment: Serum sPLA2 levels in human ACS subjects; type: in vivo; conditions: ITT population
Description: (§1) 625 adult (18 years of age or older) unstable human subjects who had recently experienced an index ACS event (UA, NSTEMI, or STEMI) were randomized to receive placebo or A-002 at 500 mg once daily via oral administration in a double-blinded manner. A-002 was delivered in the form of two 250 mg tablets. In addition, all subjects received atorvastatin at 80 mg once daily via oral administration of a single tablet.
(§2) Subjects were randomized within 96 hours of hospital admission for an index ACS event, or within 96 hours of index ACS event diagnosis if already hospitalized. Prior to randomization, subjects were screened for pertinent medical history, and baseline levels of LDL and hs-CRP were measured. Baseline sPLA2 levels were also measured in a random subset of subjects. Percutaneous revascularization, if required or planned for a particular subject, was performed prior to randomization.
(§3) Subjects were excluded if they were receiving statin therapy at maximum recommended or tolerated dosage (i.e., 40-80 mg QD for atorvastatin, fluvastatin, lovastatin, pravastatin, or simvastatin, or 20-40 mg QD rosuvastatin) at the time of the index ACS event. During the trial, subjects were prevented from using any lipid-lowering therapy other than 80 mg atorvastatin and/or A-002.
(§4) For purposes of this study, MACEs included all-cause mortality, non-fatal MI, documented UA requiring urgent hospitalization, revascularization occurring 60 days or more after the initial index ACS event, and non-fatal stroke. Subjects were evaluated at 2, 4, 8, 12, 16, 20, and 24 weeks after randomization and monthly thereafter until study completion. Each evaluation included measurement of serum LDL levels and recordation of any MACEs or less severe adverse events occurring since the previous evaluation. In addition, certain evaluation periods included measurement of one or more of hs-CRP, sPLA2, IL-6, and/or other biomarker levels, vital signs, weight, and/or waist circumference. […] This final evaluation included at least a complete physical examination, a 12-lead ECG reading, measurement of LDL, hs-CRP, sPLA2, and IL-6 levels, and recordation of any MACEs during the study period.

[2] = tested on: LDL and CRP levels; experiment: Reaching composite target LDL and hs-CRP levels in human ACS subjects; type: in vivo; conditions: ITT population
Description: as §1, §2, §3, §4

[3] = tested on: subjects that had recently experienced an ACS event; conditions: 80 mg atorvastatin; subjects that had recently experienced an ACS event (Schwartz 2001); cited from earlier work
[4] = tested on: serum LDL; conditions: for % of subjects with [LDL] < 50 mg/dl / % of subjects with [LDL] < 70 mg/dl / % of subjects with [LDL] < 100 mg/dl / % change in mean [LDL] from baseline / Change in mean [LDL] from baseline: ITT population
[5] = tested on: Human ACS Subjects; experiment: Major adverse cardiac events (MACEs) in human ACS subjects; type: in vivo
Description: as §1, §2, §3, §4

[6] = tested on: serum hs-CRP; experiment: Serum hs-CRP levels in human ACS subjects; type: in vivo
Description: as §1, §2, §3, §4

[7] = tested on: serum IL-6; experiment: Serum IL-6 levels in human ACS subjects; type: in vivo
Description: as §1, §2, §3, §4

[8] = ITT population, cumulative at 16 weeks

## CC(C)c1c(C(=O)Nc2ccccc2)c(-c2ccccc2)c(-c2ccc(F)cc2)n1CC[C@@H](O)C[C@@H](O)CC(=O)O [Placebo (atorvastatin only), atorvastatin]
[1]; Week 2
  % change in median [sPLA2] from baseline: +5.4%
[1]; Week 4
  % change in median [sPLA2] from baseline: −7.0%
[1]; Week 8
  % change in median [sPLA2] from baseline: −15.6%
[1]; Week 16
  % change in median [sPLA2] from baseline: −12.1%
[2]; Baseline
  % of subjects with mean [LDL] < 70 mg/dl and [hs-CRP] <1 mg/L: 0.4%
  % of subjects with mean [LDL] < 70 mg/dl and [hs-CRP] < 3 mg/L: 1.4%
[2]; Week 2
  % of subjects with mean [LDL] < 70 mg/dl and [hs-CRP] <1 mg/L: 5.6%
  % of subjects with mean [LDL] < 70 mg/dl and [hs-CRP] < 3 mg/L: 16.4%
[2]; Week 4
  % of subjects with mean [LDL] < 70 mg/dl and [hs-CRP] <1 mg/L: 12.8%
  % of subjects with mean [LDL] < 70 mg/dl and [hs-CRP] < 3 mg/L: 30.5%
[2]; Week 8
  % of subjects with mean [LDL] < 70 mg/dl and [hs-CRP] <1 mg/L: 17.5%
  % of subjects with mean [LDL] < 70 mg/dl and [hs-CRP] < 3 mg/L: 36.8%
[2]; Week 16
  % of subjects with mean [LDL] < 70 mg/dl and [hs-CRP] <1 mg/L: 15.6%
  % of subjects with mean [LDL] < 70 mg/dl and [hs-CRP] < 3 mg/L: 32.9%
[2]; Week 24
  % of subjects with mean [LDL] < 70 mg/dl and [hs-CRP] <1 mg/L: 15.9%
  % of subjects with mean [LDL] < 70 mg/dl and [hs-CRP] < 3 mg/L: 34.1%
[3]
  absolute reduction in death, non-fatal MI, cardiac arrest with resuscitation, or worsening symptomatic myocardial ischemia: 2.6%
  relative reduction in death, non-fatal MI, cardiac arrest with resuscitation, or worsening symptomatic myocardial ischemia: 16%
[4]; Baseline
  % of subjects with [LDL] < 50 mg/dl: 1.1%
  % of subjects with [LDL] < 70 mg/dl: 5.2%
  % of subjects with [LDL] < 100 mg/dl: 24.1%
[4]; Week 2
  % change in mean [LDL] from baseline: −41.7%
  % of subjects with [LDL] < 50 mg/dl: 21.9%
  % of subjects with [LDL] < 70 mg/dl: 54.6%
  % of subjects with [LDL] < 100 mg/dl: 89.1%
  Change in mean [LDL] from baseline: -52.5 mg/dL
[4]; Week 4
  % change in mean [LDL] from baseline: −42.3%
  % of subjects with [LDL] < 50 mg/dl: 25.0%
  % of subjects with [LDL] < 70 mg/dl: 54.8%
  % of subjects with [LDL] < 100 mg/dl: 91.2%
  Change in mean [LDL] from baseline: -55.5 mg/dL
[4]; Week 8
  % change in mean [LDL] from baseline: −43.8%
  % of subjects with [LDL] < 50 mg/dl: 22.7%
  % of subjects with [LDL] < 70 mg/dl: 59.9%
  % of subjects with [LDL] < 100 mg/dl: 91.4%
  Change in mean [LDL] from baseline: -56.6 mg/dL
[4]; Week 16
  % change in mean [LDL] from baseline: −36.5%
  % of subjects with [LDL] < 50 mg/dl: 16.8%
  % of subjects with [LDL] < 70 mg/dl: 48.3%
  % of subjects with [LDL] < 100 mg/dl: 82.4%
  Change in mean [LDL] from baseline: -48.1 mg/dL
[4]; Week 24
  % change in mean [LDL] from baseline: −38.2%
  % of subjects with [LDL] < 50 mg/dl: 14.1%
  % of subjects with [LDL] < 70 mg/dl: 50.0%
  % of subjects with [LDL] < 100 mg/dl: 86.5%
  Change in mean [LDL] from baseline: -50.0 mg/dL
[4]; final study visit
  percentage of subjects reaching target LDL levels of 50 mg/dl or less: 16.0%
  percentage of subjects reaching target LDL levels of 70 mg/dl or less: 42.8%
[5]; ITT population, 0-30 days
  Death (# of events): 4
  MI (# of events): 2
  Stroke (# of events): 0
  Total MACE (# of events): 12
  UA (# of events): 6
[5]; ITT population, 0-60 days
  Death (# of events), cumulative: 4
  MI (# of events), cumulative: 3
  Stroke (# of events), cumulative: 0
  Total MACE (# of events), cumulative: 14
  UA (# of events), cumulative: 7
[5]; ITT population, 0-90 days
  Death (# of events), cumulative: 5
  MI (# of events), cumulative: 3
  Stroke (# of events), cumulative: 1
  Total MACE (# of events), cumulative: 17
  UA (# of events), cumulative: 8
[5]; ITT population, 0-112 days
  Death (# of events), cumulative: 5
  MI (# of events), cumulative: 4
  Stroke (# of events), cumulative: 1
  Total MACE (# of events), cumulative: 19
  UA (# of events), cumulative: 9
[5]; ITT population, 30-60 days
  Death (# of events): 0
  MI (# of events): 1
  Stroke (# of events): 0
  Total MACE (# of events): 2
  UA (# of events): 1
[5]; ITT population, 60-90 days
  Death (# of events): 1
  MI (# of events): 0
  Stroke (# of events): 1
  Total MACE (# of events): 3
  UA (# of events): 1
[5]; ITT population, 90-112 days
  Death (# of events): 0
  MI (# of events): 1
  Stroke (# of events): 0
  Total MACE (# of events): 2
  UA (# of events): 1
[5]; [8]
  Death (% of subjects): 1.6%
  Death (number): 5
  MI (% of subjects): 1.3%
  MI (number): 4
  Revascularization ≧ 60 days (number): 0
  Stroke (% of subjects): 0.3%
  Stroke (number): 1
  Total MACEs (% of subjects): 6.1%
  Total MACEs (number): 19
  UA requiring hospitalization (% of subjects): 2.9%
  UA requiring hospitalization (number): 9
[5]; days 0 to 30
  % of subjects who experienced a MACE: 3.9%
[5]; days 0 to 60
  % of subjects who experienced a MACE: 4.5%
[5]; days 0 to 90
  % of subjects who experienced a MACE: 5.5%
[6]; ITT population, Week 2
  % change in median [hs-CRP] from baseline: −20.0%
[6]; ITT population, Week 4
  % change in median [hs-CRP] from baseline: −63.5%
[6]; ITT population, Week 8
  % change in median [hs-CRP] from baseline: −71.0%
[6]; ITT population, Week 16
  % change in median [hs-CRP] from baseline: −71.8%
[6]; ITT population, Week 24
  % change in log mean [hs-CRP] from baseline: −77.0%
[6]; diabetes subpopulation, Week 2
  % change in median [hs-CRP] from baseline: −11.0%
[6]; diabetes subpopulation, Week 4
  % change in median [hs-CRP] from baseline: −51.1%
[6]; diabetes subpopulation, Week 8
  % change in median [hs-CRP] from baseline: −67.6%
[6]; diabetes subpopulation, Week 16
  % change in median [hs-CRP] from baseline: −72.4%
[6]; diabetes subpopulation, Week 24
  % change in median [hs-CRP] from baseline: −76.1%
[7]; ITT population, Week 2
  % change in median [IL-6] from baseline: −5.2%
[7]; ITT population, Week 4
  % change in median [IL-6] from baseline: −33.7%
[7]; ITT population, Week 8
  % change in median [IL-6] from baseline: −38.3%
[7]; diabetes subpopulation, Week 2
  % change in median [IL-6] from baseline: +3.5%
[7]; diabetes subpopulation, Week 4
  % change in median [IL-6] from baseline: −23.9%
[7]; diabetes subpopulation, Week 8
  % change in median [IL-6] from baseline: −40.4%
